The text below walks through data of patent US7862804B2, “Admistration of C-glycoside compounds for depigmenting/whitening the skin” (Loreal, priority 2005, dated 2011).

This assay relates to actinic lentigines. Put plainly: Double blind clinical study versus placebo; dermatologist's clinical evaluation of actinic lentigines. Format: in vivo, human. As to the method: A clinical evaluation of actinic lentigines was carried out by a dermatologist at the beginning and at the end of the study according to a scale with 7 levels, including 4 main levels: • 0—absent; • 1—few blemishes; • 2—many blemishes; • 3—a great many blemishes; and 3 intermediate levels (0.5; 1.5; 2.5).
The women applied C-β-D-xylopyranoside-2-hydroxypropane at a concentration of 10% by weight with respect to the total weight of the composition in a proportion of 2 mg/cm^2 or the placebo twice daily for 3 months (98 days) to the pre-marked regions.

For `CC(O)C[C@@H]1OC[C@@H](O)[C@H](O)[C@H]1O` (stereo partly drawn) [C-β-D-xylopyranoside-2-hydroxypropane], for the setting “scale with 7 levels, 0-3, 10% by weight, 2 mg/cm^2 topical twice daily for 3 months (98 days), p=0.08”, the “mean score of actinic lentigines on the treated side, end of study” value was 0.93+/−0.68. For the same molecule, the “mean score of actinic lentigines on the treated side, before treatment” value (scale with 7 levels, 0 absent to 3 a great many blemishes, 15 women, phototype III, baseline of treated side) is listed as 1.07+/−0.62. For the same molecule, the “subjects exhibiting a lower score on the treated side, end of study” value (treated side versus placebo side, after 3 months (98 days) of 10% topical twice daily) is listed as 54%. In addition, the “subjects exhibiting a lower score on the treated side, at the beginning of the study” value (treated side versus placebo side, baseline) was 13%.
